Laboratory results: ChEMBL document CHEMBL6092221, “Discovery of a Novel Macrocyclic Noncovalent CDK7 Inhibitor for Cancer Therapy” (J Med Chem, 2024)

What was measured:
[1] = AUC(0 to 24 hrs) in Sprague-Dawley rat at 30 mg/kg, po; type: ADME, organism-based; conditions: in vivo
CDK18/Cyclin Y = CDK18/Cyclin Y (Homo sapiens, UniProt Q07002+Q8ND76); assay: Inhibition of CDK18/Cyclin Y (unknown origin) at 200 nM relative to control; values are per cent of control
[2] = AUC(0 to t) in mouse at 5 mg/kg, po; type: ADME, organism-based; conditions: in vivo
[3] = target: Serine/threonine-protein kinase D2 (Homo sapiens, UniProt Q9BZL6); assay: Inhibition of PRKD2 (unknown origin)
Chain of Serine/threonine-protein kinase D2 (Q9BZL6 whole entry): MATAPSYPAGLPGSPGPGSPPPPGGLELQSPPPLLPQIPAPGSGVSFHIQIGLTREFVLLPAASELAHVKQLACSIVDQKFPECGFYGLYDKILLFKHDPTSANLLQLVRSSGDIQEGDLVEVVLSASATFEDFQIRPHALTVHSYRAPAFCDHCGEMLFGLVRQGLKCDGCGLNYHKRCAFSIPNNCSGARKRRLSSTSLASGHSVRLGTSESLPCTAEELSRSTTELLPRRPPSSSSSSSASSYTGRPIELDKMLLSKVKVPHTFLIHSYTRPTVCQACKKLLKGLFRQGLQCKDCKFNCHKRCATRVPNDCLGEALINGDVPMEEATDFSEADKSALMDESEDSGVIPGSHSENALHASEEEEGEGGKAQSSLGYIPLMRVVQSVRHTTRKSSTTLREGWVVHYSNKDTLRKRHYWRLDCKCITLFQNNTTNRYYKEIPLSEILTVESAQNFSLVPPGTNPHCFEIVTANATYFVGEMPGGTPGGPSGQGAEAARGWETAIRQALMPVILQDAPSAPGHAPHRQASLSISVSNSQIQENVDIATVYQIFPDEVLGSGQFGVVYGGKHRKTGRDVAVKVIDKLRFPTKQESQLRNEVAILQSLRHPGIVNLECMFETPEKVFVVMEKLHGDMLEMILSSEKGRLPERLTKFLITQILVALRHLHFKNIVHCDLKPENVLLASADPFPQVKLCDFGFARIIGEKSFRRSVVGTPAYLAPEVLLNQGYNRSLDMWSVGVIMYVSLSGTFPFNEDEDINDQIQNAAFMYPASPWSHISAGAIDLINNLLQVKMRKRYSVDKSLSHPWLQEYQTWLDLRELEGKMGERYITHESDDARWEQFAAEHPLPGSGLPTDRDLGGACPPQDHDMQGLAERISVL

OVCAR-3 [4] = assay: Antitumor activity against human OVCAR-3 cells xenografted in female Balb/c nude mouse assessed as tumor growth inhibition at 2 mg/kg, po administered once daily and measured on day 22; type: functional; conditions: OVCAR-3, 528 h, time 22 day, read-out: TGI
[5] = AUC(0 to 24 hrs) in Sprague-Dawley rat at 100 mg/kg, po; type: ADME, organism-based; conditions: in vivo
[6] = Clearance in rat at 1 mg/kg, iv; type: ADME, organism-based; conditions: in vivo
Cytochrome P450 2C19 = Cytochrome P450 2C19 (Homo sapiens, UniProt P33261); assay: Inhibition of CYP2C19 (unknown origin); type: ADME
[7] = target: Cyclin-dependent kinase 9 (Homo sapiens, UniProt P50750); assay: Inhibition of CDK9 (unknown origin)
Chain of Cyclin-dependent kinase 9 (P50750 whole entry): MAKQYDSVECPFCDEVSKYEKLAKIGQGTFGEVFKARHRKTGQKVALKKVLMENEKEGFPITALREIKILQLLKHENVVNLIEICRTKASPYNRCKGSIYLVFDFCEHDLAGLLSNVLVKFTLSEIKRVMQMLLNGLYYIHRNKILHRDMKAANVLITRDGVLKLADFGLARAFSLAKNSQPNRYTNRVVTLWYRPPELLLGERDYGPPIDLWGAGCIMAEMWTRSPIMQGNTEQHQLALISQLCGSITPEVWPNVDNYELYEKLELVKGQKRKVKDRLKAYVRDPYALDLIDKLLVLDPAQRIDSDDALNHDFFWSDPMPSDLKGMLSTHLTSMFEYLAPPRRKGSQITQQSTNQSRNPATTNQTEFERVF

[8] = Cmax in rat at 5 mg/kg, po; type: ADME, organism-based; conditions: in vivo
[9] = Cmax in Sprague-Dawley rat at 30 mg/kg, po; type: ADME, organism-based; conditions: in vivo
[10] = Volume of distribution at steady state in mouse at 1 mg/kg, iv; type: ADME, organism-based; conditions: in vivo, read-out: Vdss
[11] = target: Cyclin-Y/Cyclin-dependent kinase 16 (Homo sapiens, UniProt Q00536); assay: Inhibition of CDK16/CyclinY (unknown origin); type: protein-complex assay
Chain of Cyclin-Y/Cyclin-dependent kinase 16 (Q00536 whole entry): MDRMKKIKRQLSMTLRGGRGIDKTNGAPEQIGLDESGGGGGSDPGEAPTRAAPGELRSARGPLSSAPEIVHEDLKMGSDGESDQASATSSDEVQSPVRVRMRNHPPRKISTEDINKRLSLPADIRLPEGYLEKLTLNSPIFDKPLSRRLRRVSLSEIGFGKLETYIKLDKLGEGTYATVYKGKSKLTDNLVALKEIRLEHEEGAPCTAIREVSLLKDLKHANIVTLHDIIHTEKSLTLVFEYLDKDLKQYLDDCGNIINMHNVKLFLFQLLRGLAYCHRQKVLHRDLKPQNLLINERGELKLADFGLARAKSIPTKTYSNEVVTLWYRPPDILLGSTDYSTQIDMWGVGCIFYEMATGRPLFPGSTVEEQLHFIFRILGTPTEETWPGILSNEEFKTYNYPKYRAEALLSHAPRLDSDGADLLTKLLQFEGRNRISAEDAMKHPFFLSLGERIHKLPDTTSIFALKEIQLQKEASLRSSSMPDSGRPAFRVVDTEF
Chain of Cyclin-Y/Cyclin-dependent kinase 16 (Q8ND76 whole entry, further chain): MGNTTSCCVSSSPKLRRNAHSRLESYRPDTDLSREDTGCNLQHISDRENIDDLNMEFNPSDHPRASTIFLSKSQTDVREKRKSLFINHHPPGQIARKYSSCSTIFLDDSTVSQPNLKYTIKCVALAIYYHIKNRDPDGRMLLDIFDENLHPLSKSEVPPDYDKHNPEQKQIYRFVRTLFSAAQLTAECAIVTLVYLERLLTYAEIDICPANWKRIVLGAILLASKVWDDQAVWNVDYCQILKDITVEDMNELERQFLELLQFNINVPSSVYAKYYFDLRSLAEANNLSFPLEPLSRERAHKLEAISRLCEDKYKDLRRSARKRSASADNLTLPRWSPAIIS

[12] = Cmax in female Balb/c nude mouse at 5 mg/kg, po; type: ADME, organism-based; conditions: in vivo
[13] = Metabolic stability in mouse liver microsomes assessed as intrinsic clearance; type: ADME, Microsome; conditions: read-out: CLH
HCC70 [14] = assay: Antitumor activity against human HCC70 cells xenografted in female nu/nu mouse assessed as tumor growth inhibition at 10 mg/kg, po administered once daily and measured for 4 weeks; type: functional; conditions: HCC70, 672 h, read-out: TGI
[15] = Toxicity in female nu/nu mouse xenografted with human HCC70 cells assessed as body weight loss at 1 to 10 mg/kg, po administered once daily and measured for 4 weeks; type: organism-based; conditions: in vivo, 672 h, dose 1-10 mg/kg
[16] = target: Cyclin-dependent kinase 7/ cyclin H (Homo sapiens, UniProt P50613); assay: Binding affinity to CDK7/CyclinH (unknown origin) assessed as dissociation constant by SPR assay; type: protein-complex assay
Chain of Cyclin-dependent kinase 7/ cyclin H (P51946 whole entry): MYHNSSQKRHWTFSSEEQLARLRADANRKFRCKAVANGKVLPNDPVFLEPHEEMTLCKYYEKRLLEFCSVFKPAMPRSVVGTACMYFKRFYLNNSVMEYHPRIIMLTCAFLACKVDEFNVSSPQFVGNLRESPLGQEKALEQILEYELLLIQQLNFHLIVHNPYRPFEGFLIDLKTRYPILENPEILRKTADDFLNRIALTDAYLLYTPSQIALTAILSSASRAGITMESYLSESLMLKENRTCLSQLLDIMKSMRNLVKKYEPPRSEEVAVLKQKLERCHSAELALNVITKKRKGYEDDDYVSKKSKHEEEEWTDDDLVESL
Chain of Cyclin-dependent kinase 7/ cyclin H (P50613 whole entry): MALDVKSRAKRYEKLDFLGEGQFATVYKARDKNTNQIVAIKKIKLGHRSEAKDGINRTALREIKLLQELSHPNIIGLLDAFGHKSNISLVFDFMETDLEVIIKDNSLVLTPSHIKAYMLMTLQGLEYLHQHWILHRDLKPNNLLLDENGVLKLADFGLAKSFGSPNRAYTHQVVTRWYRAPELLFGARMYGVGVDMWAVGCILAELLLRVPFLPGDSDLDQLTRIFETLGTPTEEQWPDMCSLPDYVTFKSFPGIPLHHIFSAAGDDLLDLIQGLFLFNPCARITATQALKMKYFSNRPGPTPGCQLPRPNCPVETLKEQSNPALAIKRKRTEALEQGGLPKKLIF

[17] = AUC(0 to t) in human HCC70 cells xenografted in female nu/nu mouse plasma at 1 mg/kg, po administered once daily; type: ADME, organism-based
[18] = Half life in mouse at 5 mg/kg, po; type: ADME, organism-based; conditions: in vivo
[19] = Clearance in dog at 0.2 mg/kg, iv; type: ADME, organism-based, Canis lupus familiaris; conditions: in vivo
[20] = Cmax in human OVCAR-3 cells xenografted in female Balb/c nude mouse plasma at 5 mg/kg, po administered once daily; type: ADME, organism-based
[21] = Oral bioavailability in female Balb/c nude mouse at 5 mg/kg; type: ADME, organism-based; conditions: in vivo
[22] = target: Serine/threonine-protein kinase D1 (Homo sapiens, UniProt Q15139); assay: Inhibition of PRKD1 (unknown origin)
Chain of Serine/threonine-protein kinase D1 (Q15139 whole entry): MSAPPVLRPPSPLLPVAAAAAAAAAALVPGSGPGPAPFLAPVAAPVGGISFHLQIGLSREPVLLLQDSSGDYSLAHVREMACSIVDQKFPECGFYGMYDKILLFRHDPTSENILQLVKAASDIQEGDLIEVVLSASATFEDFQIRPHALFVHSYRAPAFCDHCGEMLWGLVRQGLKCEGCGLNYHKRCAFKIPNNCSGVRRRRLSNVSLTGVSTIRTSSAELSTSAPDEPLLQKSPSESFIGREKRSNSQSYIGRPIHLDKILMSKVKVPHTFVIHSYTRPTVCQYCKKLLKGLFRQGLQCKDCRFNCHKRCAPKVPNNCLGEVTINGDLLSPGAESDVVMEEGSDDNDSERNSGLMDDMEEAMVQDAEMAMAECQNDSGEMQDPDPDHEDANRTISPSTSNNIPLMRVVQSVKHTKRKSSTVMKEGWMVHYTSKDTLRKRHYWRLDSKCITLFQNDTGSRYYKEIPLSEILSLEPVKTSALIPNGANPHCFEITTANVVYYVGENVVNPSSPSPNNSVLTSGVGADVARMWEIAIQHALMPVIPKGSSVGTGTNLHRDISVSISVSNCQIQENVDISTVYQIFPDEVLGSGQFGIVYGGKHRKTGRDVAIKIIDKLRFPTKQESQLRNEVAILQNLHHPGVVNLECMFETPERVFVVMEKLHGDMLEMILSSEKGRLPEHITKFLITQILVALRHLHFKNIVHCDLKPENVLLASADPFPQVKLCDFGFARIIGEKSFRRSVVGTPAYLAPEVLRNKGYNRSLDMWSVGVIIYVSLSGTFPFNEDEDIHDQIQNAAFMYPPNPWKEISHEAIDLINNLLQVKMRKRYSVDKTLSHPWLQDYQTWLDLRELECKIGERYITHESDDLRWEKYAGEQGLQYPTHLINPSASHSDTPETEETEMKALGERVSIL

[23] = Volume of distribution at steady state in female Balb/c nude mouse at 1 mg/kg, iv; type: ADME, organism-based; conditions: in vivo, read-out: Vdss
CDK4/Cyclin D3 = CDK4/Cyclin D3 (Homo sapiens, UniProt P11802); assay: Inhibition of CDK4/Cyclin D3 (unknown origin); type: protein-complex assay
[24] = Half life in human HCC70 cells xenografted in female nu/nu mouse plasma at 10 mg/kg, po administered once daily; type: ADME, organism-based
[25] = Half life in human OVCAR-3 cells xenografted in female Balb/c nude mouse plasma at 2 mg/kg, po administered once daily; type: ADME, organism-based
[26] = AUC(0 to t) in mouse at 1 mg/kg, iv; type: ADME, organism-based; conditions: in vivo
[27] = Half life in human OVCAR-3 cells xenografted in female Balb/c nude mouse plasma at 5 mg/kg, po administered once daily; type: ADME, organism-based
[28] = AUC(0 to t) in dog at 0.2 mg/kg, iv; type: ADME, organism-based, Canis lupus familiaris; conditions: in vivo
[29] = Metabolic stability in rat liver microsomes assessed as intrinsic clearance; type: ADME, Microsome; conditions: read-out: CLH
[30] = target: Cyclin-dependent kinase 14/Cyclin-Y (Homo sapiens, UniProt O94921); assay: Inhibition of CDK14/Cyclin Y (unknown origin); type: protein-complex assay
Chain of Cyclin-dependent kinase 14/Cyclin-Y (O94921 whole entry): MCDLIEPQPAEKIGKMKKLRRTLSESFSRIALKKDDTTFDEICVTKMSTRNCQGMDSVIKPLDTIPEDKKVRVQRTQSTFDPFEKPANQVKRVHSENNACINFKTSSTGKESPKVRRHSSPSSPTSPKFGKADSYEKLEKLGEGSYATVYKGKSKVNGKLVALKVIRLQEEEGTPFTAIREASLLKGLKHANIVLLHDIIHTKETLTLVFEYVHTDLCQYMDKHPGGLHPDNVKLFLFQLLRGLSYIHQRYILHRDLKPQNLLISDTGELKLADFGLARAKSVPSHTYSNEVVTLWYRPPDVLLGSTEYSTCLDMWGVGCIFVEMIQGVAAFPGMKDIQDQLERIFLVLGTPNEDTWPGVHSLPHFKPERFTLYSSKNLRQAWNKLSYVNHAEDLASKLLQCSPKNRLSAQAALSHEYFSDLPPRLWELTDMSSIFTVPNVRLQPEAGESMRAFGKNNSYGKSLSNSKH
Chain of Cyclin-dependent kinase 14/Cyclin-Y (Q8ND76 whole entry, further chain): as the sequence (Q8ND76 whole entry, further chain) above

[31] = AUC(0 to t) in rat at 5 mg/kg, po; type: ADME, organism-based; conditions: in vivo
Mus musculus = assay: In vivo inhibition of CDK2 phosphorylation in human HCC70 cells xenografted in female Balb/c nude mouse administered once daily for 7 days; type: functional, organism-based; conditions: dose 2-10 mg/kg, time 7.0 day
[32] = AUC(0 to t) in human HCC70 cells xenografted in female nu/nu mouse plasma at 3 mg/kg, po administered once daily; type: ADME, organism-based
[33] = Oral bioavailability in rat at 5 mg/kg; type: ADME, organism-based; conditions: in vivo
[34] = Half life in dog at 0.2 mg/kg, iv; type: ADME, organism-based, Canis lupus familiaris; conditions: in vivo
[35] = Cmax in human OVCAR-3 cells xenografted in female Balb/c nude mouse plasma at 20 mg/kg, po administered once daily; type: ADME, organism-based
[36] = Volume of distribution at steady state in dog at 0.2 mg/kg, iv; type: ADME, organism-based, Canis lupus familiaris; conditions: in vivo, read-out: Vdss
[37] = Permeability in human Caco-2 cells; type: ADME, cell-based; conditions: read-out: permeability
[38] = target: Serine/threonine-protein kinase D1 (Homo sapiens) (UniProt Q15139); assay: Inhibition of PRKD1 (unknown origin) at 200 nM relative to control; values are per cent of control
Chain of Serine/threonine-protein kinase D1 (Homo sapiens) (Q15139 whole entry): as the sequence (Q15139 whole entry) above

[39] = Plasma protein binding in mouse assessed as unbound fraction; type: ADME, cell-free
[40] = Half life in human HCC70 cells xenografted in female nu/nu mouse plasma at 1 mg/kg, po administered once daily; type: ADME, organism-based
HCC70 [41] = assay: Antitumor activity against human HCC70 cells xenografted in female nu/nu mouse assessed as tumor growth inhibition at 1 mg/kg, po administered once daily and measured for 4 weeks; type: functional; conditions: HCC70, 672 h, read-out: TGI
[42] = target: Mitogen-activated protein kinase 15 (Homo sapiens) (UniProt Q8TD08); assay: Inhibition of Erk8 (unknown origin) at 200 nM relative to control; values are per cent of control
Chain of Mitogen-activated protein kinase 15 (Homo sapiens) (Q8TD08 whole entry): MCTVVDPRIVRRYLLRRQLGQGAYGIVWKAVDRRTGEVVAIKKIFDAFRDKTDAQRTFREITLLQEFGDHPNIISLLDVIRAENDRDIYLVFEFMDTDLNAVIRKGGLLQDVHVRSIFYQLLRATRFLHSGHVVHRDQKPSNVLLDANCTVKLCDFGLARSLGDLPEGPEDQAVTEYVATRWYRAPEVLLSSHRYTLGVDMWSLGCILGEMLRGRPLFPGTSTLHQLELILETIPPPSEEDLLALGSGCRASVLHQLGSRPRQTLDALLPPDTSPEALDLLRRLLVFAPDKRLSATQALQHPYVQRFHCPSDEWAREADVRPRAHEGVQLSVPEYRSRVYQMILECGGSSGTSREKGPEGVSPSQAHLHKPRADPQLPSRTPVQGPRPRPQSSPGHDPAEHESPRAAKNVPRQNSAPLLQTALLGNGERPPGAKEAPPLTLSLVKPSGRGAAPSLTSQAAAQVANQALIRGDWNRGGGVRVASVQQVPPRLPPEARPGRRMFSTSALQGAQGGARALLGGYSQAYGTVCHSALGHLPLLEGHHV

OVCAR-3 [43] = assay: Antitumor activity against human OVCAR-3 cells xenografted in female Balb/c nude mouse assessed as tumor growth inhibition at 10 mg/kg, po administered once daily and measured on day 22; type: functional; conditions: OVCAR-3, 528 h, time 22 day, read-out: TGI
[44] = Plasma protein binding in human assessed as unbound fraction; type: ADME, cell-free
[45] = target: Serine/threonine-protein kinase TAO1 (Homo sapiens, UniProt Q7L7X3); assay: Inhibition of TAOK1 (unknown origin)
[46] = Plasma protein binding in rat assessed as unbound fraction; type: ADME, cell-free

For CN1CC(F)(F)CCN(C)[C@H]2CC[C@@H](C2)Nc2ncc(C(F)(F)F)c(n2)-c2c[nH]c3c(P(C)(C)=O)c(ccc23)C1=O, the AUC(0-t) [1] was 3960 ng·h/mL, the residual activity (CDK18/Cyclin Y) was 2.9% and the AUC(0-t) [2] was 938 ng·h/mL. The IC50 [3] was 45.2 nM, the inhibition in vivo at 2 mg/kg (OVCAR-3 [4]) was 110% and the AUC(0-t) [5] was 14200 ng·h/mL. The clearance [6] was 39.9 mL/min/kg, the IC50 (Cytochrome P450 2C19) was 30900 nM and the IC50 [7] was 258 nM. It also gave a Cmax [8] of 165 ng/mL, a Cmax [9] of 1270 ng/mL and a Vd [10] of 1.7 L/kg. For the same compound, the IC50 [11] was 2.8 nM, the Cmax [12] was 355 ng/mL and the CLint scaled [13] was 84.3 mL/min/kg. For the same compound, the inhibition in vivo at 10 mg/kg (HCC70 [14]) was 175%, the Activity [15] was “Non-toxic” and the Kd [16] was 0.18 nM. For the same compound, the AUC(0-t) [17] was 84 ng·h/mL, the half-life [18] was 4.3 h and the clearance [19] was 1.2 mL/min/kg. It also gave a Cmax [20] of 400 ng/mL, a bioavailability [21] of 78.7% and an IC50 [22] of 23.7 nM. For the same compound, the Vd [23] was 1.7 L/kg, the IC50 (CDK4/Cyclin D3) was 13.1 nM and the half-life [24] was 1.7 h. For the same compound, the half-life [25] was 1.7 h, the AUC(0-t) [26] was 315 ng·h/mL and the half-life [27] was 2.8 h. The AUC(0-t) [28] was 3070 ng·h/mL, the CLint scaled [29] was 44.9 mL/min/kg and the IC50 [30] was 16.1 nM. The AUC(0-t) [31] was 554 ng·h/mL, the Activity (Mus musculus) was “Dose-dependent-effect” and the AUC(0-t) [32] was 203 ng·h/mL. It also gave a bioavailability [33] of 29%, a half-life [34] of 3.4 h and a Cmax [35] of 1690 ng/mL. For the same compound, the Vd [36] was 0.24 L/kg, the Papp [37] was 3.69 ×10⁻⁶ cm/s and the residual activity [38] was 19%. The fraction unbound [39] was 0.036, the half-life [40] was 2 h and the inhibition in vivo at 1 mg/kg (HCC70 [41]) was 35.5%. For the same compound, the residual activity [42] was 0.85%, the inhibition in vivo at 10 mg/kg (OVCAR-3 [43]) was 111% and the fraction unbound [44] was 0.043. The IC50 [45] was 546 nM and the fraction unbound [46] was 0.044.
